# Measured values from patent US20230009626A1 (ICHNOS SCIENCES S.A., priority 2018, published 2023).
# Biological target: HPK1 (MAP4K1) (Homo sapiens, UniProt Q92918)
# Experiment: FRET Assay for HPK1 (MAP4K1): one step binding assay, displacement of labeled tracer
# Details: for inhibition at 1 µM: 1 μM compound; for inhibition at 1 µM / inhibition at 10 µM: FRET ratio 665/620, percent of control; for inhibition at 10 µM: 10 μM compound; for IC50: dose response curve, nonlinear regression
# In short: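 TR-FRET tracer-displacement binding assay. GST-tagged HPK1 (10 nM) and Eu-anti-GST antibody (4 nM) were pre-incubated with compound on ice for 15 min in 50 mM HEPES pH 7.5, 10 mM MgCl2, 1 mM EGTA, 0.01% Brij-35 (3% DMSO final). Kinase Tracer 222 (20 nM) was then added for 1 h at room temperature. IC50 came from nonlinear regression of percent of control; percent inhibition was also given at 1.0 and 10.0 μM.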
# Sequence of HPK1 (MAP4K1) (Q92918 whole entry): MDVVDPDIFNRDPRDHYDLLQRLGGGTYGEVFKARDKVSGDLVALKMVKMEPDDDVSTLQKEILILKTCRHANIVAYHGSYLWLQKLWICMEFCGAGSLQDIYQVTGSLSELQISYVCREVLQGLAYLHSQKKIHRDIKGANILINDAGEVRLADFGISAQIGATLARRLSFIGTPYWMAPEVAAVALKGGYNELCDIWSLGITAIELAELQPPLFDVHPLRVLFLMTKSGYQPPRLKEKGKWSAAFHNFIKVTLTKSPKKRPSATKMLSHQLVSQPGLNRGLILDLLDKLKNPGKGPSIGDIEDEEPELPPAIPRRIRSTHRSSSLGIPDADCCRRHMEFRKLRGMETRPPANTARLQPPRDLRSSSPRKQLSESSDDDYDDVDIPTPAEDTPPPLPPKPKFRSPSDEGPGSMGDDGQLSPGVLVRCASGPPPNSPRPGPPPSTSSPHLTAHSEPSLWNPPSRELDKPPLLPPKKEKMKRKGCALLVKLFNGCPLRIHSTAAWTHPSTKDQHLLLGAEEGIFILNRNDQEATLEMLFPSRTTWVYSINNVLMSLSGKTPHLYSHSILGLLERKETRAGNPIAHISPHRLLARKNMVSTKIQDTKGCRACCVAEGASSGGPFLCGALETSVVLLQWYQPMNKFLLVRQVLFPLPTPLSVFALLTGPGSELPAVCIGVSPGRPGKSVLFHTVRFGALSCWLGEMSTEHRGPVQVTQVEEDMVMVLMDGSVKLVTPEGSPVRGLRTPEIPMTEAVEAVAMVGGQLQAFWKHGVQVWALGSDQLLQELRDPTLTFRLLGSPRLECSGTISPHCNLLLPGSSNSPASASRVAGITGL
Compound,inhibition at 1 µM [%],inhibition at 10 µM [%],IC50 [nM]
"COc1cccc(F)c1-c1cc2c(cn1)NC(=O)/C2=C(/C)Nc1cnn(C(C)(C)C#N)c1 [Example 82, (Z)-2-(4-((1-(5-(2-Fluoro-6-methoxyphenyl)-2-oxo-1H-pyrrolo[2,3-c]pyridin-3(2H)-ylidene)ethyl)amino)-1H-pyrazol-1-yl)-2-methylpropanenitrile]",70.6,79.9,< 50
"C/C(Nc1ccn(C2CCOCC2)n1)=C1/C(=O)Nc2cnc(-c3cnccc3C)cc21 [Example 83, (Z)-5-(4-Methylpyridin-3-yl)-3-(1-((1-(tetrahydro-2H-pyran-4-yl)-1H-pyrazol-3-yl)amino)ethylidene)-1H-pyrrolo[2,3-c]pyridin-2(3H)-one]",27.7,43.5,
"C/C(Nc1ccc(OC2CCNCC2)nc1)=C1/C(=O)Nc2cnc(-c3cnccc3C)cc21 [Example 84, (Z)-5-(4-Methylpyridin-3-yl)-3-(1-((6-(piperidin-4-yloxy)pyridin-3-yl)amino)ethylidene)-1H-pyrrolo[2,3-c]pyridin-2(3H)-one]",75.2,70.4,< 50
"C/C(Nc1cnn(C)c1)=C1/C(=O)Nc2cnc(-c3cncc4c3OCC(=O)N4)cc21 [Example 85, (Z)-8-(3-(1-((1-Methyl-1H-pyrazol-4-yl)amino)ethylidene)-2-oxo-2,3-dihydro-1H-pyrrolo[2,3-c]pyridin-5-yl)-2H-pyrido[4,3-b][1,4]oxazin-3(4H)-one]",78.2,,< 50
"C/C(NCCN1CCOCC1)=C1/C(=O)Nc2cnc(-c3cnccc3C)cc21 [Example 86, (Z)-5-(4-Methylpyridin-3-yl)-3-(1-((2-morpholinoethyl)amino)ethylidene)-1H-pyrrolo[2,3-c]pyridin-2(3H)-one]",51.5,74,> 500
"C/C(Nc1cnn(CCN2CCOCC2)c1)=C1/C(=O)Nc2cnc(-c3cnccc3C)cc21 [Example 87, (Z)-5-(4-Methylpyridin-3-yl)-3-(1-((1-(2-morpholinoethyl)-1H-pyrazol-4-yl)amino)ethylidene)-1H-pyrrolo[2,3-c]pyridin-2(3H)-one]",83.6,84.8,< 50
"C/C(Nc1cnn(C(C)(C)C#N)c1)=C1/C(=O)Nc2cnc(-c3c(C)noc3C)cc21 [Example 88, (Z)-2-(4-((1-(5-(3,5-Dimethylisoxazol-4-yl)-2-oxo-1H-pyrrolo[2,3-c]pyridin-3(2H)-ylidene)ethyl)amino)-1H-pyrazol-1-yl)-2-methylpropanenitrile]",74.3,87.6,100 to 500
"C/C(Nc1cnn(C(C)C)c1)=C1/C(=O)Nc2cnc(-c3cnccc3C)cc21 [Example 89, (Z)-3-(1-((1-Isopropyl-1H-pyrazol-4-yl)amino)ethylidene)-5-(4-methylpyridin-3-yl)-1H-pyrrolo[2,3-c]pyridin-2(3H)-one]",77.3,76,< 50
"CC(=O)N1CCC(n2cc(N/C(C)=C3\C(=O)Nc4cnc(-c5cnccc5C)cc43)cn2)CC1 [Example 90, (Z)-3-(1-((1-(1-Acetylpiperidin-4-yl)-1H-pyrazol-4-yl)amino)ethylidene)-5-(4-methylpyridin-3-yl)-1H-pyrrolo[2,3-c]pyridin-2(3H)-one]",72.7,75.6,< 50
"CC/C(Nc1cnn(C(C)(C)C#N)c1)=C1/C(=O)Nc2cnc(-c3cnccc3C)cc21 [Example 91, (Z)-2-Methyl-2-(4-((1-(5-(4-methylpyridin-3-yl)-2-oxo-1H-pyrrolo[2,3-c]pyridin-3(2H)-ylidene)propyl)amino)-1H-pyrazol-1-yl)propanenitrile]",79.7,,< 50
"CC/C(Nc1ccn(C(C)(C)C#N)n1)=C1/C(=O)Nc2cnc(-c3cnccc3C)cc21 [Example 92, (Z)-2-Methyl-2-(3-((1-(5-(4-methylpyridin-3-yl)-2-oxo-1H-pyrrolo[2,3-c]pyridin-3(2H)-ylidene)propyl)amino)-1H-pyrazol-1-yl)propanenitrile]",77,80.3,< 50
"COc1cccc(F)c1-c1cc2c(cn1)NC(=O)/C2=C(/C)Nc1ccn(C(C)(C)C#N)n1 [Example 93, (Z)-2-(3-((1-(5-(2-Fluoro-6-methoxyphenyl)-2-oxo-1H-pyrrolo[2,3-c]pyridin-3(2H)-ylidene)ethyl)amino)-1H-pyrazol-1-yl)-2-methylpropanenitrile]",73.8,76.4,< 50
"CCS(=O)(=O)n1ccc(N/C(C)=C2\C(=O)Nc3cnc(-c4cnccc4C)cc32)n1 [Example 94, (Z)-3-(1-((1-(Ethylsulfonyl)-1H-pyrazol-3-yl)amino)ethylidene)-5-(4-methylpyridin-3-yl)-1H-pyrrolo[2,3-c]pyridin-2(3H)-one]",66.8,75.4,< 50
"COc1ccncc1-c1cc2c(cn1)NC(=O)/C2=C(/C)Nc1ccn(C(C)(C)C#N)n1 [Example 95, (Z)-2-(3-((1-(5-(4-Methoxypyridin-3-yl)-2-oxo-1H-pyrrolo[2,3-c]pyridin-3(2H)-ylidene)ethyl)amino)-1H-pyrazol-1-yl)-2-methylpropanenitrile]",75.5,75.7,< 50
"C/C(Nc1ccc(N2CCN(C3CC3)CC2)nc1)=C1/C(=O)Nc2cnc(-c3cnccc3C)cc21 [Example 96, (Z)-3-(1-((6-(4-Cyclopropylpiperazin-1-yl)pyridin-3-yl)amino)ethylidene)-5-(4-methylpyridin-3-yl)-1H-pyrrolo[2,3-c]pyridin-2(3H)-one]",68.6,73.5,< 50
"C/C(Nc1ccn(C(C)(C)C(N)=O)n1)=C1/C(=O)Nc2cnc(-c3cnccc3C)cc21 [Example 97, (Z)-2-Methyl-2-(3-((1-(5-(4-methylpyridin-3-yl)-2-oxo-1H-pyrrolo[2,3-c]pyridin-3(2H)-ylidene)ethyl)amino)-1H-pyrazol-1-yl)propanamide]",59,59.9,100 to 500
"C/C(Nc1ccn(C(C)(C)C#N)n1)=C1/C(=O)Nc2cnc(-c3ccccc3C)cc21 [Example 98, (Z)-2-Methyl-2-(3-((1-(2-oxo-5-(o-tolyl)-1H-pyrrolo[2,3-c]pyridin-3(2H)-ylidene)ethyl)amino)-1H-pyrazol-1-yl)propanenitrile]",61,69,50 to 100
"C/C(Nc1ccn(C(C)C)n1)=C1/C(=O)Nc2cnc(-c3cnccc3C)cc21 [Example 99, (Z)-3-(1-((1-Isopropyl-1H-pyrazol-3-yl)amino)ethylidene)-5-(4-methylpyridin-3-yl)-1H-pyrrolo[2,3-c]pyridin-2(3H)-one]",70.1,78.6,50 to 100
"C/C(Nc1ccn(C)n1)=C1/C(=O)Nc2ccc(-c3cnccc3C)cc21 [Example 100, (Z)-3-(1-((1-Methyl-1H-pyrazol-3-yl)amino)ethylidene)-5-(4-methylpyridin-3-yl)indolin-2-one]",72.8,77,< 50
"C/C(Nc1ccn(CCN2CCOCC2)n1)=C1/C(=O)Nc2cnc(-c3cnccc3C)cc21 [Example 101, (Z)-5-(4-Methylpyridin-3-yl)-3-(1-((1-(2-morpholinoethyl)-1H-pyrazol-3-yl)amino)ethylidene)-1H-pyrrolo[2,3-c]pyridin-2(3H)-one]",68,81.8,< 50
"C/C(Nc1ccn(C2(C#N)CC2)n1)=C1/C(=O)Nc2cnc(-c3cnccc3C)cc21 [Example 102, (Z)-1-(3-((1-(5-(4-Methylpyridin-3-yl)-2-oxo-1H-pyrrolo[2,3-c]pyridin-3(2H)-ylidene)ethyl)amino)-1H-pyrazol-1-yl)cyclopropanecarbonitrile]",81.6,89.7,< 50
"C/C(Nc1ccn(CC2CC2)n1)=C1/C(=O)Nc2cnc(-c3cnccc3C)cc21 [Example 103, (Z)-3-(1-((1-(Cyclopropylmethyl)-1H-pyrazol-3-yl)amino)ethylidene)-5-(4-methylpyridin-3-yl)-1H-pyrrolo[2,3-c]pyridin-2(3H)-one]",74.5,83.4,< 50
"C/C(Nc1ccn(CC(C)(C)O)n1)=C1/C(=O)Nc2cnc(-c3cnccc3C)cc21 [Example 104, (Z)-3-(1-((1-(2-Hydroxy-2-methylpropyl)-1H-pyrazol-3-yl)amino)ethylidene)-5-(4-methylpyridin-3-yl)-1H-pyrrolo[2,3-c]pyridin-2(3H)-one]",74.6,79.8,< 50
"C/C(Nc1cnn(C(C)(C)C#N)c1)=C1/C(=O)Nc2ccc(-c3cnccc3C)nc21 [Example 105, (Z)-2-Methyl-2-(4-((1-(5-(4-methylpyridin-3-yl)-2-oxo-1H-pyrrolo[3,2-b]pyridin-3(2H)-ylidene)ethyl)amino)-1H-pyrazol-1-yl)propanenitrile]",79.8,84.4,< 50
"C/C(Nc1ccn(C(C)(C)C#N)n1)=C1/C(=O)Nc2cnc(-c3cncc(N)c3C)cc21 [Example 106, (Z)-2-(3-((1-(5-(5-Amino-4-methylpyridin-3-yl)-2-oxo-1H-pyrrolo[2,3-c]pyridin-3(2H)-ylidene)ethyl)amino)-1H-pyrazol-1-yl)-2-methylpropanenitrile]",80,92.4,< 50
